Experimental data taken from patent US7588906B2, “Hydrogels for biomolecule analysis and corresponding method to analyze biomolecules” (Wisconsin Alumni Research Foundation, priority 2004, dated 2009).
Read-outs that look alike come from different tables or passages of the source. One block for each molecule: values may come before it. Ends that are not written are not given here.

Key:
v-Abl tyrosine kinase = target: T1, v-Abl tyrosine kinase (Abelson murine leukemia virus, UniProt P00521); assay: v-Abl phosphorylation of hydrogel-immobilized Abl peptide, MALDI mass spectrometry detection; format: biochemical; settings: 3 hours, 30° C., estimated from MALDI spectrum FIG. 24B
T1 sequence (P00521 1-746): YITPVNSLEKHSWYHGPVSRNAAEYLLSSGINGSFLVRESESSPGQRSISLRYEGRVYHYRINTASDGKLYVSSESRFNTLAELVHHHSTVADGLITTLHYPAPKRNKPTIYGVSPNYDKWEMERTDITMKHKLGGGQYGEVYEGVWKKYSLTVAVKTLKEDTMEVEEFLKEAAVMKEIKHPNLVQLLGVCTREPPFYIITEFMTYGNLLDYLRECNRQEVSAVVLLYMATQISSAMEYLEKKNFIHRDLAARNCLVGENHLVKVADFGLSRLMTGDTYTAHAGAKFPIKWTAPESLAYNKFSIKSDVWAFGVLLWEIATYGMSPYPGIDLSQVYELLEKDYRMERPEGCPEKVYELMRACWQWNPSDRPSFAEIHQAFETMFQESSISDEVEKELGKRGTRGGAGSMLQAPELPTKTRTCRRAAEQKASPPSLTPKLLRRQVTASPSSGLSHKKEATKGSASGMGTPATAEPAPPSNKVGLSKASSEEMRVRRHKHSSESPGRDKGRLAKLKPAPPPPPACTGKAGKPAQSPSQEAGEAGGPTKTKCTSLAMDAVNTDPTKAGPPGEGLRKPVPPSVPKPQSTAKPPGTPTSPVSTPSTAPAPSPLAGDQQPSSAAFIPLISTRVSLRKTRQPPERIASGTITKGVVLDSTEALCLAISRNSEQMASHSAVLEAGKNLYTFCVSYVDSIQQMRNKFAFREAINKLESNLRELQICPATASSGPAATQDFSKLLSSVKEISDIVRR
Text: The acrylic-labeled peptides were then incorporated into peptide-acrylamide copolymer hydrogels as described in the previous examples. Briefly recapping, individual peptide acrylamide copolymer hydrogel spots were attached to stainless steal MALDI target plates (16) (Applied Biosystems, Foster, Calif.) and acrylic-functionalized glass slides.
The peptide-acrylamide copolymer hydrogels were then subjected to enzyme-mediated phosphorylation reactions. Substrates containing peptide-acrylamide copolymer hydrogels were washed by sonication in approximately 20 ml of H2O for 10 mm and dried under compressed air. The substrates were then reconstituted in a v-Abl reaction mixture and incubated at 30° C. in a saturated environment for 3 hours. […] Following the phosphorylation reaction, the solid substrates were sonicated twice in approximately 20 ml of H2O for 10 mm and dried under compressed air.
After the phosphorylation reactions, the copolymer hydrogels were subjected to MALDI mass spectrometry analysis. Stainless steel MALDI target plates and glass slides containing peptide-acrylamide copolymer hydrogels were analyzed on an ABI Voyager 4700 MALDI-TOF/TOF mass spectrometer (Applied Biosystems). […] The samples were then analyzed in linear positive, linear negative, reflector positive, and reflector negative modes to detect the phosphorylated samples.

[1] = target: T2, Bcr-Abl (K562 cell lysate) (Homo sapiens, UniProt P00519); assay: Array-based K562 cell lysate kinase assay on GST-Crkl substrates immobilized in polyacrylamide hydrogels, ECL phosphotyrosine detection; format: biochemical; settings: for IC50: GST-Crkl (SH3) 165 ng/mm^2, 2 h, inhibitor 100 nM to 1 mM, read-out: IC50 for inhibition of Bcr-Abl activity, inhibitor screen; for Inhibition of Bcr-Abl activity at 100 μM / Inhibition of Bcr-Abl activity at 1 mM / Inhibition of Bcr-Abl activity over the range studied: GST-Crkl (SH3), 2 h; for Inhibition of Bcr-Abl activity at 100 μM: 100 μM inhibitor; for Inhibition of Bcr-Abl activity at 1 mM: 1 mM inhibitor; for Inhibition of Bcr-Abl activity over the range studied: 100 nM to 1 mM inhibitor
T2 construct: Source of Bcr-Abl tyrosine kinase: K562 cells (American Type Culture Collection, Manassas, Va.); endogenous in cells; host or cells: K562 cells (ATCC), clarified total cell lysate; the other entry of the earlier key: BCR (P11274, Breakpoint cluster region protein)
Protocol: Preparation of K562 and HL60 Cell Lysates: K562 and HL60 cells (ATCC, Manassas, Va.) were cultured at 37° C. and 5% CO2 in RPMI-1640 media (Cambrex Bio Science, Walkersville, Md.) containing 100 units/ml penicillin, 100 μg/ml streptomycin, and 10% FBS. For lysis, cells were resuspended at 5×10^7 cells/ml in lysis buffer (42.3 mM HEPES, 126 mM NaCl, 1.27 mM MgCl2, 0.85 mM EDTA, 84.5 mM NaF, 8.45 mM sodium pyrophosphate, 0.169 mM sodium orthovanadate, 1 mM PMSF, 0.95% Triton X-100, 9.5% glycerol, 4% 25× complete protease inhibitor, pH 7.4) and incubated on ice for 20 min. The total cell lysate was then clarified by spinning at 1500 rpm for 10 min. Total protein concentration was determined via a Pierce BCA protein assay kit (Pierce, Rockford, Ill.) and cell lysates were stored at −80° C. until further use.
Fabrication of Protein Arrays: Glass slides were acrylic-functionalized and GST-Crkl fusion proteins were acrylic-labeled as described in the previous Examples. Briefly, fusion proteins were labeled on primary amines by reaction with 6-((acrylo)amino) hexanoic acid, succinimidyl ester (Molecular Probes, Eugene, Oreg.) and clean glass slides were functionalized via reaction with (3-acryloxypropyl)-trimethoxysilane (Gelest, Tullytown, Pa.).
Following functionalization of the glass slides, a thin layer of 18.8% polyacrylamide gel was attached to the glass surface. Forty μl of a mixture containing 125 μl 1.5 M Tris, pH 8.8; 285 μl 33% acrylamide mix (0.86 g N,N′-methylenebisacrylamide (Bis) and 32.14 g acrylamide in a total volume of 100 ml); 5 μl 10% ammonium persulfate (APS); 75 μl 100% glycerol; 0.5 μl N,N,N′,N′-tetramethylethylenediamine (TEMED); and 9.5 μl water was sandwiched between an acrylic-functionalized glass slide and a clean glass plate and allowed to polymerize in a N2 environment at room temperature for 30 min. The glass plate was then removed and 1 μl protein spots were polymerized on top of the 18.8% acrylamide base layer from the following mixture: 6.25 μl 1.5 M Tris, pH 8.8; 3 μl 33% acrylamide mix; 0.5 μl 10% APS; 3.75 μl 100% glycerol; 0.1 μl TEMED; 0 to 7.5 μl acrylic-labeled GST-Crkl protein solution; and water to a total volume of 25 μl. Additionally, 3 μl spacer spots of the above mixture without protein were added on the exterior corners of the protein array for the subsequent creation of a reaction chamber as described below. After attachment of the protein-acrylamide copolymer spots the slides were washed by briefly dipping into approximately 250 ml of TBST (10 mM Tris-HCl, 100 mM NaCl, 0.1% Tween-20, pH 7.5) followed by a 15 minute and two 5 minute washes with slight agitation in approximately 20 ml of TBST. Slides were then washed by briefly dipping into approximately 250 ml of water followed by two 5 minute washes with slight agitation in approximately 20 ml of water, before being stored overnight at 4° C. in Abl kinase assay buffer (50 mM Tris-HCl, 10 mM MgCl2, 100 μM EDTA, 1 mM DTT, 0.015% Brij 35, 100 μg/ml BSA, pH 7.5).
Array-Based Kinase Assays: Just prior to the kinase assay, the glass slides were removed from the Abl kinase assay buffer and dried under a stream of compressed air. Careful attention was paid to make sure that only the bare portions of the slide were dried and the polyacrylamide spots and polyacrylamide base layer remained hydrated. Using the 3 μl spacer spots, a reaction chamber was then created by suspending a clean glass slide over top of the 1 μl protein-acrylamide copolymer hydrogel spots. […] Aliquots (250 μl) of these kinase reaction mixtures were then applied to each reaction chamber and the reactions allowed to proceed for 30 min to 5 h at 30° C. in a saturated environment. After the reaction, the glass slide used to create the reaction chamber was removed and the protein array was washed by briefly dipping into approximately 250 ml TBST followed by a 15 minute and two 5 minute washes with slight agitation in approximately 20 ml of TBST.

[2] = tested on: Chronic Myeloid Leukemia (CML); settings: cited from earlier work
[3] = target: T3, protein-tyrosine kinase p60c-src (Homo sapiens, UniProt P12931); assay: Solution kinase assay, phosphorylation of GST-[…]; format: biochemical; settings: solution reaction, Lineweaver-Burk plot
T3 construct: purchased Calbiochem, San Diego, Calif
Protocol: Solution protein kinase assays with protein-tyrosine kinase p60^c-src (Calbiochem, San Diego, Calif.) were carried out according to the manufacture's instructions. Briefly, reaction mixtures containing 1.5 μl of 50% glycerol, 1.5 μl of ATP mix (0.15 mM ATP, 30 mM MgCl2), 0.3 units of p60^c-src in 1.5 μl kinase dilution buffer (50 mM HEPES, 0.1 mM EDTA, 0.015% Brij 35, 0.1 mg/ml BSA, 0.2% β-mercaptoethanol, pH 7.5), and 1 μl GST-[…] (SEQ. ID. NO: 1) solution (50 mM HEPES, 0.1 mM EDTA, 0.015% Brij 35, pH 7.5 containing anywhere from 0 to 600 ng of GST-[…]) were incubated at 37° C. for times ranging from 10 minutes to 5.5 hours. After each kinase reaction the samples were mixed with 94.5 μl of TBS (10 mM Tris-HCl, 100 mM NaCl, pH 7.5) containing 1% SDS and heated to 97° C. for 5 minutes. Upon cooling, the samples were transferred to a nitrocellulose membrane using a Dot Blot apparatus (Biorad, Hercules, Calif.) following the manufacture's instructions. Prior to assembly of the Dot Blot apparatus, the membrane was wetted in TBS for 10 minutes. The apparatus was then assembled and each well was washed twice with 100 μl of TBS. 50 μl of the kinase reaction product was applied to each well. After application of the reaction mixture the wells were washed twice with 200 μl of TBS containing 0.05% Tween-20. […]

[4] = target: T3, protein-tyrosine kinase p60c-src; assay: Surface kinase assay, phosphorylation of hydrogel-immobilized GST-[…]; format: biochemical
Protocol: Surface protein kinase assays were carried out in a fashion similar to the solution kinase assays. Glass slides containing 0 to 600 ng of GST-[…] (SEQ. ID. NO: 1) per 1 μl polyacrylamide spot were prepared as above and stored overnight in kinase assay buffer (50 mM HEPES, 0.1 mM EDTA, 0.015% Brij 35, pH 7.5) at 4° C. Just prior to the kinase assay, these slides were dried under a stream of compressed air. […] The protein kinase reaction mixture containing 1.5 μl of 50% glycerol, 1.5 μl of ATP mix, and 0.3 units of p60^c-src in 1.5 μl of kinase dilution buffer was placed on top of each polyacrylamide spot and the slides were incubated in a humidity chamber at 37° C. for 10 minutes to 5.5 hours.
In the case of phosphotyrosine detection, a similar procedure was followed with the substitution of TBST for PBST as the buffer and BSA for milk as the blocking agent. These substitutions were required to reduce the nonspecific binding of the secondary antibody used in this detection scheme. […] The slides were then stored in TBST until detection.
In the case of the nitrocellulose membranes, 20 ml of ECL detection reagent was used per membrane.

T2 sequence (P00519 with tags, fused parts or gaps): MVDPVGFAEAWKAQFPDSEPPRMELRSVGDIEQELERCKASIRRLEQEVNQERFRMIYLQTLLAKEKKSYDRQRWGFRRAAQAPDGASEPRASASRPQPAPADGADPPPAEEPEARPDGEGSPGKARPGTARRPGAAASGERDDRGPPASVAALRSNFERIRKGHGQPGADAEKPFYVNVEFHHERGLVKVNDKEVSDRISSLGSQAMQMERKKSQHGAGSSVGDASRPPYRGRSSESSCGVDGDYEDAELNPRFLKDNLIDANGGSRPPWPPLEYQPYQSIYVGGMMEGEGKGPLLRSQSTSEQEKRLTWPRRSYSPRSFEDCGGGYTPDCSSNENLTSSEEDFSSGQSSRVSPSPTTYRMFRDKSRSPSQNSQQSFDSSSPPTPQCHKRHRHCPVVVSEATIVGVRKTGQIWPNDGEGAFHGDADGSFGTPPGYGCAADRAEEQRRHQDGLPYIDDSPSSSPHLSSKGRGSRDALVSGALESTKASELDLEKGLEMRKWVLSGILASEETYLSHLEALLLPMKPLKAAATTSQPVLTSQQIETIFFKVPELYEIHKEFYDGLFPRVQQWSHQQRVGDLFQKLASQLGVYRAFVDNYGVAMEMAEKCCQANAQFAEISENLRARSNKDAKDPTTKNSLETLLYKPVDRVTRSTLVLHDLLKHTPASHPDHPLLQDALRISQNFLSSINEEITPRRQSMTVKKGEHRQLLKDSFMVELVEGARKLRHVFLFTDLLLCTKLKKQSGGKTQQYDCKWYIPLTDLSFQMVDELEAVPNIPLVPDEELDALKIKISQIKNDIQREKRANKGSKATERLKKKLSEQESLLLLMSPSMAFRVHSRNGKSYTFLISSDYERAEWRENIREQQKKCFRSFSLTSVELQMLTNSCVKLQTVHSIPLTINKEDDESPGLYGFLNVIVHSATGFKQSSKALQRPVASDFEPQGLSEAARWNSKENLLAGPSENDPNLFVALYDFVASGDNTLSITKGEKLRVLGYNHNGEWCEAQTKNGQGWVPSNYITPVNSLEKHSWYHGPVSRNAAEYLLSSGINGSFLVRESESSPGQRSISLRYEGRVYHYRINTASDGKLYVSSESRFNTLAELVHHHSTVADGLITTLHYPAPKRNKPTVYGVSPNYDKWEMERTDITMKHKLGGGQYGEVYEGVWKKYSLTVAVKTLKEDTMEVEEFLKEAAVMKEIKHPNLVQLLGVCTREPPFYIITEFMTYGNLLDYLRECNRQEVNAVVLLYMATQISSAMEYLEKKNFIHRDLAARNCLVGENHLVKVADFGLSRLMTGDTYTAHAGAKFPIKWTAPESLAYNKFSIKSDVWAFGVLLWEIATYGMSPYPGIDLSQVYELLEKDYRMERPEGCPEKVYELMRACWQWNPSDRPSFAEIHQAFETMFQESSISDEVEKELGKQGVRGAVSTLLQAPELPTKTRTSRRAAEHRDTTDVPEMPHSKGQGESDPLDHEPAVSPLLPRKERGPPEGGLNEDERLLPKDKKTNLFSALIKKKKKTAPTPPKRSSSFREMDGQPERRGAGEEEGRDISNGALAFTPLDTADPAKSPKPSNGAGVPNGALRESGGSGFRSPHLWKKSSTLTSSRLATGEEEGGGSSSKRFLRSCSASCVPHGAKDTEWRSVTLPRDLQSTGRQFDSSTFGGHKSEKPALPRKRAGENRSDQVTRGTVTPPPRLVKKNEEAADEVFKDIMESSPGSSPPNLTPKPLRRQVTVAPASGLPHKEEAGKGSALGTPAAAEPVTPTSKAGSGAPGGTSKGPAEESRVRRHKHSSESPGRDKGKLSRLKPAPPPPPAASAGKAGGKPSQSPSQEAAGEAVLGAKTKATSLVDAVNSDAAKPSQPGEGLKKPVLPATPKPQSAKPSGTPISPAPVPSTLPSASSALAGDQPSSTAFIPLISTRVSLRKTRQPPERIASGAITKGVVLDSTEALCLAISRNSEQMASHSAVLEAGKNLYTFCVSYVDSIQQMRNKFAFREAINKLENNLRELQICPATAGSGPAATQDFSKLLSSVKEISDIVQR

Molecule: H-EAIYAAPFAKKK-OH [Abl peptide]
Extent of phosphorylation (v-Abl tyrosine kinase): approximately 90%

Molecule: α-interferon
Survival as compared to conventional chemotherapy ([2]; CML patients): prolong survival by about a year
Side effects ([2]; human, in vivo): significant side effects

Molecule: GST-EEEIYGEFE: GST-peptide fusion (SEQ. ID. NO: 1) carrying the consensus sequence for c-Src tyrosine phosphorylation ({GST}-EEEIYGEFE)
Vmax, phosphorylation by c-Src in solution [3]: 8.1±3.1 arbitrary units
Km ([3]; read-out: Km, phosphorylation by c-Src in solution): 2.7 ± 1 µM
Vmax, phosphorylation by c-Src of surface-immobilized substrate ([4]; surface reaction, polyacrylamide hydrogel spot, Lineweaver-Burk plot): 9.7±0.63 arbitrary units
Km ([4]; surface reaction, polyacrylamide hydrogel spot, Lineweaver-Burk plot, read-out: Km, phosphorylation by c-Src of surface-immobilized substrate): 0.36 ± 0.033 µM
Km of surface reaction lower than in solution ([4]; surface vs. solution): approximately 10 fold

Molecule: Cc1ccc(NC(=O)c2ccc(CN3CCN(C)CC3)cc2)cc1Nc1nccc(-c2cccnc2)n1 [Glivec]
Complete cytogenetic remission ([2]; CML patients): 41 % of patients
Side effects ([2]; CML patients): much milder side effects

Other lines, results leading:

IC50 [1]: ~100 µM
Inhibition of Bcr-Abl activity at 100 μM [1]: Significant inhibition
Inhibition of Bcr-Abl activity at 100 μM ([1]; listed as AG 1478): slight inhibition
Inhibition of Bcr-Abl activity at 1 mM [1]: Significant inhibition
Molecule: COc1cc2ncnc(Nc3cccc(Cl)c3)c2cc1OC [AG1478]

Inhibition of Bcr-Abl activity over the range studied [1]: do not inhibit
Molecule: N#C/C(=C/c1ccc(O)c(O)c1)C(=O)NCc1ccccc1 [AG490]

IC50 [1]: ~100 µM
Inhibition of Bcr-Abl activity at 100 μM [1]: Significant inhibition
Inhibition of Bcr-Abl activity at 100 μM ([1]; listed as PKI 166): slight inhibition
Inhibition of Bcr-Abl activity at 1 mM [1]: Significant inhibition
Molecule: C[C@@H](Nc1ncnc2[nH]c(-c3ccc(O)cc3)cc12)c1ccccc1 [PKI166]

Inhibition of Bcr-Abl activity over the range studied [1]: do not inhibit
Molecule: COc1cc2ncc(-c3ccccc3)nc2cc1OC [AG1296]
